Measured values published in US10808017B2, “Ubiquitin variants and uses therof as 53BP1 inhibitors” (The Governing Council of the University of Toronto, priority 2016, dated 2020).

Experiments:
[1] = system: gene targeting at the LMNA locus in U2OS cells; test: LMNA mClover gene targeting assay (CRISPR/Cas9); assay type: cell-based; conditions: parental U2OS cells; NU7441 at 10 μM
Experimental: (§1) FIG. 4. Activation of HR by i53. FIG. 4A, Schematic of the DR-GFP assay. FIG. 4B. U2OS DR-GFP cells were transfected with the vectors expressing i53, the DM mutant or an empty vector control (EV) along with an I-Scel expression vector. The percentage of GFP-positive cells was determined 48 h post-transfection for each condition and was normalized to the empty vector condition (mean±s.d., N=4). FIG. 4C, U2OS DR-GFP were first transfected with siRNAs targeting the 53BP1 or BRCA1 mRNAs along with a non-targeting siRNA (CTRL). 24 h post-transfection, cells were transfected with the I-SceI expression vector and the percentage of GFP-positive cells was determined 48 h post-siRNA transfection for each condition. The values were normalized to the empty vector condition and presented as the mean±s.e.m; N=4. FIG. 4D, Schematic of the gene targeting assay. FIG. 4E, Gene targeting efficiency at the LMNA locus in parental or 53BP1Δ U2OS cells following transfection with vectors expressing Flag-tagged i53 or its DM mutant or an empty vector control (EV). The DNA-PK inhibitor NU7441 was also added where indicated. 24 h post-transfection, cells were analysed for mClover fluorescence. Individual experiments are presented with the error bar representing the s.d., (N=3). FIG. 4F, Gene targeting at the LMNA locus in G 1-arrested parental (WT) or 53BP1Δ U2OS cells transfected with vectors expressing Flag-tagged i53 or its DM mutant or an empty vector control (EV). The DNA-PK inhibitor NU7441 was also added in the indicated conditions. 24 h post-transfection, cells were analysed for mClover fluorescence. Individual experiments are present with the error bar representing the s.d., (N=3).
The Lamin A (LMNA) assay to measure the frequency of introduction of the coding sequence for mClover at the 5′ end of LMNA using the CRISPR/Cas9 was performed as previously described4. Parental or 53BP1Δ U2OS cell lines were transfected with the indicated plasmids using Lipofectamine RNAiMAX (Invitrogen). 24 h later, the cells were electroporated with 2.5 μg of sgRNA plasmids and 2.5 μg of donor template using a Nucleofector (Lonza; protocol X-001). Parental or 53BP1Δ U2OS cells stably expressing CtIP-T847E mutant were transfected with an siRNA against KEAP1 and the indicated plasmids and processed as previously described.

[2] = system: gene conversion (HR) in U2OS DR-GFP cells; test: Direct-repeat (DR)-GFP gene conversion assay; assay type: cell-based, human; conditions: SCR7 at 1 μM; i53 by plasmid expression
Experimental: as §1
The direct repeat (DR)-GFP assay to measure the frequency of HR and the strand annealing EJ2-GFP assay to measure the frequency of MMEJ were performed as previously described. Briefly, U2OS DR-GFP or U2OS EJ2-GFP cells were transfected with 10 nM siRNA (Dharmacon) using Lipofectamine RNAiMAX (Invitrogen). 24 h later, the cells were transfected with the pCBASceI plasmid (Addgene #26477) and plasmids, using Lipofectamine 2000 (Invitrogen). 48 h post-plasmid transfection, the cells were trypsinized and the percentage of GFP-expressing cells was analyzed using the BD FACSCalibur flow cytometer.
AAV-293 cells (Agilent) were transfected with pAAV expression, pDJ and pHelper constructs (Cell Biolabs, Inc., USA) in equal amounts using PEI to produce AAV-DJ expression viruses. 48-72 h later, the viral supernatant was used to transduce target cells for 24 h, and assays were initiated a further 24 h later.

[3] = system: gene targeting at the LMNA locus in U2OS cells; conditions: reference [21]; cited from earlier work

SMILES	Change of gene targeting at the LMNA locus (in words) [1]	Gene conversion in DR-GFP assay (comparison in words) [2]	Response of gene targeting at the LMNA locus to treatment [3]
O=c1cc(N2CCOCC2)oc2c(-c3cccc4c3sc3ccccc34)cccc12 [NU7441, 8-dibenzothiophen-4-yl-2-morpholin-4-yl-chromen-4-one, reference compound]	modest increase in gene targeting		
O=c1[nH]c(=S)[nH]c(N=Cc2ccccc2)c1N=Cc1ccccc1 [SCR7, reference compound]		minimal impact	not responsive
c1cnccn1 [SCR7 pyrazine, reference compound]		minimal impact	
